Source: PubChem BioAssay AID328 (DTP/NCI, 2004)
Where “and” joins values, the source holds several entries; their conditions need not be identical. Equal values may be shown once. Toxic doses and inconclusive results are not listed. Rule for the calls: active = survival T/C of 150% or more; inactive = T/C below 125% in these data.

Tested on: BDF1 mice, P388 leukemia ip, median survival T/C
Assay: NCI In Vivo Anticancer Drug Screen. Data for tumor model P388 Leukemia (intraperitoneal) in B6D2F1 (BDF1) mice
Conditions: endpoint: median survival time, higher = longer survival
How it was run: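 Compound-treated tumour-bearing mice were compared with vehicle-treated controls. Survival was recorded, and the value is the treated-group measurement divided by the control-group measurement (T/C).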

[1] = dose: 50.0 mg/kg/injection, schedule: Q01DX009 (ip), vehicle: saline with Tween-80

Measured: T/C

Clc1ccc2nc(CBr)cnc2c1
inactive: dose: 12.5 mg/kg/injection, schedule: Q01DX009 (ip), vehicle: other 104 % of control | dose: 12.5 mg/kg/injection, schedule: Q01DX009 (ip), vehicle: saline 120 % of control | dose: 25.0 mg/kg/injection, schedule: Q01DX009 (ip), vehicle: other 109 % of control | dose: 25.0 mg/kg/injection, schedule: Q01DX009 (ip), vehicle: saline 120 % of control | dose: 25.0 mg/kg/injection, schedule: Q04DX003 (ip), vehicle: saline with Tween-80 95 % of control | dose: 35.0 mg/kg/injection, schedule: Q04DX003 (ip), vehicle: saline 108 % of control | dose: 50.0 mg/kg/injection, schedule: Q01DX009 (ip), vehicle: other 118 % of control | [1] 118 % of control | dose: 50.0 mg/kg/injection, schedule: Q01DX009 (ip), vehicle: saline 110 % of control | dose: 50.0 mg/kg/injection, schedule: Q04DX003 (ip), vehicle: saline with Tween-80 109 % of control | dose: 55.0 mg/kg/injection, schedule: Q04DX003 (ip), vehicle: saline 116 % of control | dose: 80.0 mg/kg/injection, schedule: Q04DX003 (ip), vehicle: saline 116 % of control | dose: 100.0 mg/kg/injection, schedule: Q04DX003 (ip), vehicle: saline with Tween-80 109 % of control | dose: 200.0 mg/kg/injection, schedule: Q04DX003 (ip), vehicle: saline with Tween-80 103 % of control

CCOC(=O)C(Cc1ccc(N(CCCl)CCCl)cc1)NC(=O)C(C)NC(C)=O (stereo not given)
inactive: dose: 5.0 mg/kg/injection, schedule: Q04DX003 (ip), vehicle: water 99 % of control | dose: 10.0 mg/kg/injection, schedule: Q04DX003 (ip), vehicle: water 99 % of control | dose: 20.0 mg/kg/injection, schedule: Q04DX003 (ip), vehicle: water 112 % of control | dose: 40.0 mg/kg/injection, schedule: Q04DX003 (ip), vehicle: water 116 % of control

c1ccc2c(c1)Cc1nc3ccccc3nc1-2
inactive: dose: 3.12 mg/kg/injection, schedule: Q01DX009 (ip), vehicle: water 87 % of control | dose: 6.25 mg/kg/injection, schedule: Q01DX009 (ip), vehicle: water 101 % of control and 110 % of control | dose: 12.5 mg/kg/injection, schedule: Q01DX009 (ip), vehicle: water 87 % of control and 110 % of control | dose: 25.0 mg/kg/injection, schedule: Q01DX009 (ip), vehicle: water 93 % of control and 106 % of control and 114 % of control | dose: 25.0 mg/kg/injection, schedule: Q04DX003 (ip), vehicle: water 116 % of control | dose: 50.0 mg/kg/injection, schedule: Q01DX009 (ip), vehicle: water 89 % of control and 95 % of control | dose: 50.0 mg/kg/injection, schedule: Q04DX003 (ip), vehicle: water 102 % of control | dose: 100.0 mg/kg/injection, schedule: Q01DX009 (ip), vehicle: water 87 % of control and 110 % of control | dose: 100.0 mg/kg/injection, schedule: Q04DX003 (ip), vehicle: water 103 % of control | dose: 200.0 mg/kg/injection, schedule: Q01DX009 (ip), vehicle: water 98 % of control | dose: 200.0 mg/kg/injection, schedule: Q04DX003 (ip), vehicle: water 104 % of control | dose: 400.0 mg/kg/injection, schedule: Q01DX009 (ip), vehicle: water 104 % of control | dose: 400.0 mg/kg/injection, schedule: Q04DX003 (ip), vehicle: water 113 % of control

Cc1ccc(NC(=S)N2CCC(CCCC3CCN(C(=S)Nc4ccc(C)c(C)c4)CC3)CC2)cc1C
inactive: dose: 100.0 mg/kg/injection, schedule: Q01DX009 (ip), vehicle: Klucel (hydroxypropylcellulose) (HPC) 100 % of control | dose: 100.0 mg/kg/injection, schedule: Q04DX003 (ip), vehicle: Klucel (hydroxypropylcellulose) (HPC) 95 % of control | dose: 200.0 mg/kg/injection, schedule: Q01DX009 (ip), vehicle: Klucel (hydroxypropylcellulose) (HPC) 90 % of control | dose: 200.0 mg/kg/injection, schedule: Q04DX003 (ip), vehicle: Klucel (hydroxypropylcellulose) (HPC) 95 % of control | dose: 400.0 mg/kg/injection, schedule: Q01DX009 (ip), vehicle: Klucel (hydroxypropylcellulose) (HPC) 90 % of control | dose: 400.0 mg/kg/injection, schedule: Q04DX003 (ip), vehicle: Klucel (hydroxypropylcellulose) (HPC) 100 % of control

Nc1[nH]c(=O)ncc1[N+](=O)[O-]
inactive: [1] 102 % of control | dose: 100.0 mg/kg/injection, schedule: Q01DX009 (ip), vehicle: saline with Tween-80 118 % of control

NCCCNCCCCNCCCN
inactive: dose: 50.0 mg/kg/injection, schedule: Q01DX001 (ip), vehicle: saline 110 % of control
